Patent publication US12433903B2 (priority 2021, dated 2025)

Target: T1, adrenoceptor alpha 2A (ADRA2A) (Homo sapiens, UniProt P08913)
T1 construct: expressed in transfected cells
T1 sequence (P08913 1-465): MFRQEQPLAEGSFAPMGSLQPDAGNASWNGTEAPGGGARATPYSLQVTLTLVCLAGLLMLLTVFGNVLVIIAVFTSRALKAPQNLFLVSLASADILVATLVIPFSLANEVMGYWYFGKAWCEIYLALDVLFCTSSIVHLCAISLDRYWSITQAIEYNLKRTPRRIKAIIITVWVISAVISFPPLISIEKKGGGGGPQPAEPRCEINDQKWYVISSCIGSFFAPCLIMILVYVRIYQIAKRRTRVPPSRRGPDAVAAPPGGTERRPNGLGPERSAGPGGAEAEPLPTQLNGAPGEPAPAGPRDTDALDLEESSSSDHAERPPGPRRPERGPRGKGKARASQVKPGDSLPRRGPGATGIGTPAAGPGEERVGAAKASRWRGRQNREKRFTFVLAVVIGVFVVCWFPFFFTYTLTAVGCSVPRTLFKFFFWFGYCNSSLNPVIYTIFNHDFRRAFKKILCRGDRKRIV
Assay: ADRA2A agonist assay (cAMP secondary messenger pathway, HitHunter cAMP XS+)
Format: cell-based
From the text: Compounds of the present disclosure (e.g., one or more compounds of Formula (1), (II), (III), Table 1 or Table 2) may be tested for activity in receptor binding assays using methods known in the art, to evaluate agonist, antagonist, inverse agonist and other modes of activity. For example compounds of the disclosure may be tested in a adrenoceptor alpha 2A (ADRA2A) Agonist assay as follows:
Cell lines stably expressing non-tagged adrenoceptor alpha 2A (ADRA2A) that signal through cAMP were used. Agonist assays monitored by the activation of ADRA2A via Gi or Gs secondary messenger signaling in a homogenous, non-imaging assay format using a technology called Enzyme Fragment Complementation (EFC) with P-galactosidase (p-Gal) as the functional reporter.
The enzyme is split into two complementary portions: EA for Enzyme Acceptor and ED for Enzyme Donor. ED is fused to cAMP and in the assay competes with cAMP generated by cells for binding to a cAMP-specific antibody. Active P-Gal is formed by complementation of exogenous EA to any unbound ED cAMP. Active enzyme can then convert a chemiluminescent substrate, generating an output signal detectable on a standard microplate reader.
• 1. cAMP assay ADRA2A cell lines were expanded from freezer stocks according to standard procedures. • 2. Cells were seeded in a total volume of 20 μL into white walled, 384 well microplates and incubated at 37° C. for the appropriate time prior to testing • 3. cAMP modulation was determined using the DiscoverX HitHunter cAMP XS+ assay Gs Agonist Format • 1. For agonist determination, cells were incubated with sample to induce response. • 2. Media was aspirated from cells and replaced with 15 μL 2:1 HBSS/10 mM Hepes: cAMP XS+Ab reagent. • 3. Intermediate dilution of sample stocks was performed to generate 4× sample in assay buffer. • 4. 5 μL of 4× sample was added to cells and incubated at 37° C. or room temperature for 30 or 60 minutes. Vehicle concentration was 1%. Gi Agonist Format • 1. For agonist determination, cells were incubated with sample in the presence of EC80 forskolin to induce response. • 2. Media was aspirated from cells and replaced with 15 μL 2:1 HBSS/10 mM Hepes: cAMP XS+Ab reagent. • 3. Intermediate dilution of sample stocks was performed to generate 4× sample in assay buffer containing 4× EC80 forskolin. • 4. 5 μL of 4× sample was added to cells and incubated at 37° C. or room temperature for 30 or 60 minutes. Final assay vehicle concentration was 1% Signal Detection • 1. After appropriate compound incubation, assay signal was generated through incubation with 20 μL cAMP XS+ED/CL lysis cocktail for one hour followed by incubation with 20 μL cAMP XS+EA reagent for three hours at room temperature. • 2. Microplates were read following signal generation with a PerkinElmer Envision™ instrument for chemiluminescent signal detection. Data Analysis • 1. Compound activity was analyzed using CBIS data analysis suite (ChemInnovation, CA) • 2. For Gs agonist mode assays, percentage activity is calculated using the following formula: % Activity=100%×(mean RLU of test sample−mean RLU of vehicle control)/(mean RLU of MAX control−mean RLU of vehicle control). • 3. For Gi agonist mode assays, percentage activity is calculated using the following formula: % Activity=100%×(1−(mean RLU of test sample-mean RLU of MAX control)/(mean RLU of vehicle control-mean RLU of MAX control))

With `CCCCCc1cc(O)c(C/C=C(\C)CCC=C(C)C)c(O)c1` [CBG, cannabigerol] the “Curve Bottom” value was 17.138, the “Curve Top” value was 167.56 and the Hill was 1.5564. The Emax (read-out: Max Response) was 163% and the EC50 (read-out: RC50 (Result Type EC50)) was 1340 nM.
